The values below come from ChEMBL document CHEMBL1142604, “Chamazulene carboxylic acid and matricin: a natural profen and its natural prodrug, identified through similarity to synthetic drug substances” (J Nat Prod, 2006).

For data set [1], the system named is Rattus norvegicus. Description: Antiinflammatory activity in rat assessed as inhibition of carrageenan-induced right paw edema at 300 mg/kg after 1 hr. Format: functional. In general terms: In the carrageenan paw model, swelling and tenderness develop within hours.
Data set [2] relates to Rattus norvegicus. Description: Antiinflammatory activity in rat assessed as inhibition of carrageenan-induced right paw edema at 600 mg/kg after 1 hr. Format: functional.
Data set [3] deals with Rattus norvegicus. Put plainly: Antiinflammatory activity in rat assessed as inhibition of carrageenan-induced right paw edema at 600 mg/kg after 3 hrs. Format: functional.
Data set [4] in a line: Dissociation constant, pKa of the compound. Format: physicochemical.
Data set [5] is described as follows: Lipophilicity, log D at pH 7.4. It counts as physicochemical. The settings on record: buffer.
Data set [6] concerns the target T1, Prostaglandin G/H synthase 1 (Ovis aries) (UniProt P05979).
T1 sequence (whole entry): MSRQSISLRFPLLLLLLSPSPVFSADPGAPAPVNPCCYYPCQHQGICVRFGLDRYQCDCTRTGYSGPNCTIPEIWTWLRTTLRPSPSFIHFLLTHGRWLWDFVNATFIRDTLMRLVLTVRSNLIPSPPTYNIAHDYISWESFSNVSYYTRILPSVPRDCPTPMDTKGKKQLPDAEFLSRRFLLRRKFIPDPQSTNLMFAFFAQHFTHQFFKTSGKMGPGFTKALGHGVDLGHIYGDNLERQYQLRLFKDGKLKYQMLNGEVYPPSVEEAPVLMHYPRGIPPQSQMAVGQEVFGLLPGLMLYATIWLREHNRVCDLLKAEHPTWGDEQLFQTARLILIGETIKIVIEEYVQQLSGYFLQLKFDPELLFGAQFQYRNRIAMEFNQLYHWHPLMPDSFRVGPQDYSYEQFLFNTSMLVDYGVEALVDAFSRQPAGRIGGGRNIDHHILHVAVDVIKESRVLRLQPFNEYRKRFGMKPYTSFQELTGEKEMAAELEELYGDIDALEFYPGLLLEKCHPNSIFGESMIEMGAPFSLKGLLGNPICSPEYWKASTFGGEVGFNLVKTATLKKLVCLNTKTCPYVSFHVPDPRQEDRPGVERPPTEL
Put plainly: Inhibition of ram COX1 at 50 uM.

The test system of data set [7] is Mus musculus. Description: Antiinflammatory activity in mouse assessed as inhibition of phorbol […]-induced ear lobe edema. It counts as functional. Also on record: scale not given: the % may be the effect or the level left.
For data set [8], the system named is Mus musculus. Description: Antiinflammatory activity in mouse assessed as inhibition of phorbol […]-induced ear lobe edema at 0.1 umol/ear after 6 hrs relative to control. It counts as functional.
Data set [9] deals with Mus musculus. Put plainly: Antiinflammatory activity in mouse assessed as inhibition of phorbol […]-induced ear lobe edema at 0.1 umol/ear after 24 hrs relative to control. Format: functional.
Data set [10] concerns Mus musculus. Put plainly: Antiinflammatory activity in mouse assessed as inhibition of phorbol […]-induced ear lobe edema at 0.1 umol/ear after 48 hrs relative to control. It counts as functional.
Data set [11] relates to Mus musculus. Put plainly: Antiinflammatory activity in mouse assessed as inhibition of phorbol […]-induced ear lobe edema at 1 umol/ear after 6 hrs relative to control. Format: functional.
Data set [12] deals with Mus musculus. Put plainly: Antiinflammatory activity in mouse assessed as inhibition of phorbol […]-induced ear lobe edema at 1 umol/ear after 24 hrs. It counts as functional.
Data set [13] concerns Mus musculus. Description: Antiinflammatory activity in mouse assessed as inhibition of phorbol […]-induced ear lobe edema at 1 umol/ear after 48 hrs relative to control. Format: functional.
Data set [14] is filed under the species Homo sapiens. Description: Plasma concentration in human by HPLC assay. Format: ADME, organism-based. The settings on record: in vivo.
The test system of data set [15] is Homo sapiens. Description: Plasma concentration in human at 500 mg, po after 75 to 90 mins. It counts as ADME, organism-based. The settings on record: in vivo.
A short description of data set [16]: Plasma concentration in human at 300 mg, po after 2.5 hrs. It counts as ADME, organism-based.
Data set [17] is described as follows: Plasma concentration in human at 300 mg, po after 5 hrs. It counts as ADME, organism-based.
Data set [18] is described as follows: Plasma concentration in human at 300 mg, po after 25 hrs. It counts as ADME, organism-based.
Data set [19] is described as follows: Reduction in prostaglandin metabolite level in human urine at 500 mg, po. Format: ADME. Also on record: scale not given: the % may be the effect or the level left. The settings on record: in vivo.
A short description of data set [20]: Cmax in human at 500 mg, po. It counts as ADME, organism-based. Also on record: dose 500 mg, route oral. The settings on record: in vivo.
The nature of data set [21]: Tmax in human at 500 mg, po. It counts as ADME, organism-based. The settings on record: in vivo.
Data set [22] deals with Homo sapiens. Description: Absorption coefficient, Ka in human at 500 mg, po. Format: ADME, organism-based. The settings on record: in vivo.
The nature of data set [23]: Elimination constant, beta in human at 500 mg, po. It counts as ADME, organism-based. The settings on record: in vivo.
Data set [24] can be described thus: Elimination half life in human at 500 mg, po. It counts as ADME, organism-based. The settings on record: in vivo, read-out: beta t1/2 (converted).
In data set [25] the test system is Homo sapiens. Description: Volume of distribution in human at 500 mg, po. It counts as ADME, organism-based. The settings on record: in vivo.
Data set [26] in a line: AUC (0 to infinity) in human at 500 mg, po. Format: ADME, organism-based. Also on record: dose 500 mg, time infinity, route oral. The settings on record: plasma.
Data set [27] can be described thus: Metabolic stability in artificial gastric fluid assessed as transformation to chamazulene carboxylic acid after 60 mins. It counts as physicochemical. The settings on record: simulated gi fluid, 1 h.

The term inhibition in vivo denotes the percentage by which the read-out fell short of the control. Take `Cc1ccc([C@H](C)C(=O)OCOC(=O)C(C)(C)C)cc2c(C)ccc1-2`: the inhibition in vivo at 300 mg/kg in [1] worked out at 34.8%.

For the compound `COC(=O)[C@@H](C)c1ccc(C)c2ccc(C)c-2c1`, the inhibition in vivo at 300 mg/kg in [1] worked out at 22.8%.

Consider `CC(=O)Oc1ccccc1C(=O)O` [ASPIRIN], for which the results for the inhibition in vivo at 600 mg/kg in data set [2] and in [3] were 92.4% and 77.3%, respectively.

A word on the pKa: it is the negative logarithm of the acid dissociation constant. By logD is commonly meant the decadic logarithm of the distribution of all forms, ionised or not, between an organic phase and buffer at a given pH. Usually inhibition stands for the percentage by which the read-out fell short of the control. What is called Cmax is the peak of the concentration-time curve. The term Tmax denotes the time from dosing to the highest level. As usually defined, the AUC(0-inf) is total exposure, with the tail of the curve extrapolated. `Cc1ccc([C@H](C)C(=O)O)cc2c(C)ccc1-2` [CHAMAZULENE CARBOXYLIC ACID] returned a pKa in data set [4] of 4.14. In data set [5], this compound gave a logD of 0.79. Besides, the inhibition in [6] is 17.4%. For the same compound, the Activity worked out at 23% in [7] and 40% in data set [19]. Further, the “inhibition (INH)” value in [8] worked out at 12%; in [9], 19%; in data set [10], 35%; in data set [11], 38%; in data set [12] it was 14%; in data set [13], 24%. The inhibition in vivo at 300 mg/kg in data set [1] stood at 17.4%. The results for the Cp in data set [14] and in [15] were 100 ng/mL and 900 ng/mL, respectively. This compound also registered a concentration at 2.5 h in data set [16] of 1700 ng/mL. For the same compound, in data set [17], the concentration at 5 h came to 2400 ng/mL. The concentration at 25 h in data set [18] is 2900 ng/mL. Also, the Cmax in [20] was found to be 900 ng/mL. Further, the Tmax in data set [21] was 1.25 h. Further, the Ka in data set [22] came out at 0.53 h⁻¹. Besides, the k el in data set [23] was 4.72e-05 s⁻¹. The half-life in data set [24] was 4 h. Further, the Vd in data set [25] was 133 L. In addition, in data set [26], the AUC(0-inf) turned out to be 14700 ng·h/mL.

As for `CC(C)Cc1ccc([C@H](C)C(=O)O)cc1` [DEXIBUPROFEN], the logD in data set [5] was found to be 1.07.

In [4], `CC(C(=O)O)c1ccc(-c2ccccc2)c(F)c1` (stereo not drawn) [FLURBIPROFEN] displayed a pKa of 4.6. This compound also returned a logD in [5] of 0.85.

`CC(=O)O[C@H]1CC(C)=C2C=C[C@@](C)(O)[C@@H]2[C@H]2OC(=O)[C@@H](C)[C@@H]21` [MATRICIN]: in [27], the Stability entry is “Stable”.

Regarding `COc1ccc2cc([C@H](C)C(=O)O)ccc2c1` [NAPROXEN], the Activity in data set [7] is 59%. Besides, the “inhibition (INH)” value in [8] was 28%; in data set [9] it was 21%; in data set [10], 18%; in data set [11], 45%; in [13], 25%.
